Data reported in the NIST ThermoML archive (doi:10.1016/j.jct.2019.03.005).

Details: Liquid, Frequency=3 MHz, Pulse-echo method

CC(C)(C)c1ccccc1 [(1,1-dimethylethyl)benzene]
speed of sound [m/s]
Details	298.15 K	313.15 K	333.15 K	353.15 K	373.15 K	393.15 K	413.15 K	433.15 K
100 kPa	1316.4	1255.3	1176.9	1101.8	1029.9	959.3	890.9	823.7
20100 kPa	1415.8	1360.3	1290.1	1223.5	1161.2	1101.1	1042.6	987.2
40100 kPa	1501.7	1450.3	1385.4	1324.4	1267.7	1213.3	1161.1	1112.1
60100 kPa	1578.5	1529.8	1469	1411.8	1359	1308.5	1260.2	1215.1
80100 kPa	1647.9	1601.7	1543.9	1489.6	1439.6	1392	1346.6	1304.3
100100 kPa	1711.7	1667.3	1612.5	1560.2	1512.4	1466.9	1423.8	1383.6

CC(C)c1ccccc1 [isopropylbenzene]
speed of sound [m/s]
Details	298.15 K	313.15 K	333.15 K	353.15 K	373.15 K	393.15 K	413.15 K	433.15 K
100 kPa	1309.1	1247.6	1168.5	1091.8	1017.8	945.6	875	–
10100 kPa	–	–	–	–	–	–	–	897.7
20100 kPa	1406.9	1351.3	1280.5	1213.2	1149.2	1088.1	1029.6	974
40100 kPa	1491.7	1440	1374.7	1313.2	1255.1	1200.1	1147.8	1098.9
60100 kPa	1566.8	1518.3	1457.2	1399.6	1345.6	1294.7	1246.5	1201.3
80100 kPa	1634.8	1588.9	1530.9	1476.5	1425.6	1377.6	1332.1	1289.9
100100 kPa	1697.4	1653.3	1598	1546	1497.4	1451.6	1408.6	1368.6
